The values that follow come from US5691311A (Biogen, Inc., priority 1995, dated 1997).

The subject of series [1] is thrombin-induced platelet activation. Briefly: Thrombin-induced platelet activation in platelet-rich plasma. Type of series: cell-based, human. To be noted: 0-500 ng/ml, thrombin 0.2, 0.25 or 0.5 units/ml. The method, then:
Thrombin-induced platelet activation studies are performed at 37° C. using a Biodata PAP4 Platelet Aggregometer. Platelet-rich plasma (PRP) is obtained from normal, healthy, volunteers who have not taken any medication altering platelet function for at least one week prior to study. PRP is prepared as described by J. A. Jakubowski et al., "Modification of Human Platelet by a Diet Enriched in Saturated or Polyunsaturated Fat", Atherosclerosis, 31, pp. 335-44 (1978). […] One minute later, we add human α-thrombin to the platelet suspension to a final concentration of 0.2, 0.25 or 0.5 units/ml total assay volume. Aggregation is monitored as an increase in light transmission for 5 minutes following the addition of thrombin. We then calculate % Inhibition as (% aggregationsample)/(% aggregationcontrol)×100.

Series [2] deals with platelet-dependent thrombosis. Briefly: Platelet deposition on thrombogenic surfaces in exteriorized AV shunt. Type of series: in vivo, baboon. The method, then: Specifically, we placed various thrombogenic surfaces in a chronic exteriorized AV shunt in the animals. These surfaces included segments of endarterectomized baboon aorta, collagen-coated silastic tubing, collagen-coated Gortex and Dacron vascular graft. Following placement in the shunt, the surfaces were exposed to native flowing blood to elicit thrombus formation. We measured the formation of thrombi over a period of 60 minutes by monitoring the deposition of platelets on the thrombogenic surface. These measurements were recorded by external gamma-camera imaging following pre-infusion of the test animal with autologous ^111 In-labeled platelets.

The subject of series [3] is HUVECs. Briefly: Thrombin-induced polymorphonuclear leukocyte (PMN) adhesion to HUVECs. Conditions: 5 μg/ml, α-thrombin 0.1 or 1 U/ml. Type of series: cell-based, human. The method, then: HUVECs are grown to confluence in MEM containing 1% fetal calf serum in 24-well cluster plates. The medium is then removed, the cells are washed two times with fresh, serum-free medium and incubated in the same medium for 10-30 minutes at 37° C. to remove serum products. PMNs (2.5×10^6 in 1 ml), which are pre-equilibrated at 37° C., are then added to each well. The PMNs are allowed to settle onto the HUVEC monolayer for 2 minutes. […] The cells are incubated for 5 minutes at 37° C., washed twice and then examined by phase-contrast microscopy. Adherent PMNs are counted directly.

Series [4] relates to hemostasis. The experiment in a line: Template bleeding time. Format: in vivo, baboon.
Series [5] in a line: Clearance times monitored by APTT. Format: in vivo, baboon. The method, then:
APTT assays, performed as described in Example 11, were used to monitor clearance times.
APTT was measured following the 60 minute infusion and at various time intervals thereafter.
APTT measurements were taken at various time intervals following injection.

The test system of series [6] is pooled, normal human plasma. Briefly: Activated partial thromboplastin time (APTT) assay in plasma. Type of series: biochemical. To be noted: 10 to 32,300 ng/ml. The text has this: Hirulog-8 using pooled, normal human plasma (George King Biomedical, Overland Park, Kans.) and a Coag-A-Mate XC instrument (General Diagnostics, Organon Technica, Oklahoma City, Okla.). Activity was monitored using the activated partial thromboplastin time (APTT) assay with CaCl2 and phospholipid solutions obtained from the manufacturer.

Series [7] concerns fibrin(ogen) deposition. Briefly: Fibrin(ogen) deposition in AV shunt thrombi. Format: in vivo, baboon. Conditions: collagen-coated tubing, 60 minute exposure. How it is done:
Fibrin deposition was determined by measurement of ^125 I-fibrin(ogen) 30 days after completion of the ^111 In-platelet assay described above. This allowed the ^111 In label to decay to a non-interfering level.

Series [8] concerns APTT. Briefly: Systemic anticoagulant effect (APTT) of antithrombotic agents. To be noted: dose not given. Format: in vivo, baboon. The text has this:
We also tested the effects of a variety of other agents on template bleeding time in the baboon, as well as on systemic anticoagulant effects (as measured by APTT).

Series [9] relates to APTT. Briefly: In vivo anticoagulant activity, APTT after intravenous infusion. Further details: species or system baboon. How it is done: Whole blood from treated and control animals was removed from a catheter placed in the femoral vein and collected into 3.8% sodium citrate (9:1; blood:sodium citrate). Plasma was obtained by standard methods and the APTT was recorded by methods described in Example 10.

Series [10] relates to E. coli-induced septic shock. Briefly: E. coli-induced septicemia / disseminated intravascular coagulation. Type of series: in vivo, baboon. Conditions: 0.08 mg/kg/hr infusion. The source says:
We induced septicemia in baboons by injection of a lethal dose of live E. coli according to the method described by F. B. Taylor et al. J. Clin. Invest., 79, pp. 918-25 (1987).

Series [11] has as its system sarcoma T241 cells. The experiment in a line: Anti-metastatic activity, lung tumor colonies. To be noted: i.v. or s.c., 15 days. Format: in vivo, C57BL/6 mice. The source says:
After 15 days, the animal is sacrificed and lung tumor colonies are quantitated.

Series [12] relates to platelet-dependent thrombus formation. The experiment in a line: High and low shear platelet-dependent thrombus formation, dual-chamber device. Type of series: in vivo, baboon. Conditions: 0.05 mg/kg/min, 40 minutes. The source says:
The device was comprised of a 2 cm segment of collagen-coated Gortex followed by 2 cm segments of expanded diameter. Using this device, thrombus formation was initiated by exposure of native flowing blood to a segment of the collagen-coated Gortex at high shear. This part of the experimental protocol simulated arterial-like conditions. When the blood entered the expanded diameter segments, low-shear, vortex conditions were maintained, thereby simulating venous thrombosis. In control animals, a total of 9.3±2.3×10^8 and 6.1±0.5×10^8 platelets/cm accumulated after 40 minutes in the high and low shear segments, respectively.

Series [13] relates to human umbilical vein endothelial cells (HUVECs). The experiment in a line: Thrombin-induced synthesis of platelet activating factor (PAF). Type of series: cell-based. To be noted: 0-1 μg/ml, thrombin 1 U/ml. The method, then:
The ability of the thrombin inhibitors of this invention to prevent thrombin-induced synthesis of platelet activating factor (PAF) is assayed using cultured human umbilical vein endothelial cells (HUVECs). HUVECS are extracted from human umbilical cords by collagenase digestion according to established procedures [M. A. Gimborne, Jr., "Culture of Vascular Endothelium", Prog. Hemost. Thromb., 3, pp. 1-28 (1976)]. HUVECs are grown to confluence in a 96-well microtiter plate in the presence of [^3 H]-acetate. Cells cultured in this manner produce [^3 H]-acetyl-PAF, which may be quantitated by extraction of HUVEC membrane phospholipids.
Cells are incubated for 5 minutes and the supernatant is then removed. Medium containing 0.1% gelatin, 50 mM acetic acid in methanol (2:1 v/v) is then added to the HUVECs. PAF is then extracted and quantified using conventional techniques [T. M. Mcintyre et al., "Cultured Endothelial Cells Synthesize Both Platelet-Activating Factor and Prostacyclin in Response to Histamine, Bradykinin and Adenosine Triphosphate", J. Clin. Invest., 76, pp. 271-80 (1985)]. The IC50 values are then calculated.

Series [14] relates to human α-thrombin. The experiment in a line: human α-thrombin in 20 mM Tris-HCl pH 7.4 containing 0.1M NaCl.
Series [15] has as its target clot-bound thrombin (Homo sapiens, UniProt P00734). The experiment in a line: Fibrinopeptide A (FPA) release by clot-bound thrombin. Type of series: biochemical. To be noted: similar dose (0.1 U/ml).
Series [16] addresses T1, soluble thrombin (Homo sapiens, UniProt P00734).
T1 construct: We added a 270-fold excess of ^14 C-DFP to thrombin
The experiment in a line: Fibrinopeptide A (FPA) release by soluble thrombin. Format: biochemical. To be noted: 0.1 U/ml.

Series [17] deals with platelet-dependent thrombosis. To be noted: collagen-coated silastic tubing, 160 U/kg bolus then 160 U/kg/hr infusion; cited from earlier work.
For series [18], the target named is thrombin (Homo sapiens, UniProt P00734). Conditions: cited from earlier work.

Like-named read-outs stand apart in the source and are kept apart here. Where only a bound is given, the exact number is not on record here.

A word on the ED50: it is the dose at which the effect has come halfway, by size or by number of responders. Read a high ED50 as a need for a large dose. Usually half-life stands for how long it takes for the measured level to halve. The low end stands for rapid decline, the high end for slow decline. As to `CC[C@H](C)[C@H](NC(=O)[C@H](CCC(=O)O)NC(=O)[C@H](CCC(=O)O)NC(=O)[C@H](Cc1ccccc1)NC(=O)[C@H](CC(=O)O)NC(=O)CNC(=O)[C@H](CC(N)=O)NC(=O)CNC(=O)CNC(=O)CNC(=O)CNC(=O)[C@@H]1CCCN1C(=O)[C@H](CCCNC(=N)N)NC(=O)[C@@H]1CCCN1C(=O)[C@H](N)Cc1ccccc1)C(=O)N1CCC[C@H]1C(=O)N[C@@H](CCC(=O)O)C(=O)N[C@@H](CCC(=O)O)C(=O)N[C@@H](Cc1ccc(O)cc1)C(=O)N[C@@H](CC(C)C)C(=O)O` [Hirulog-8], the thrombin-induced platelet activation entry in series [1] is “blocks thrombin-induced platelet activation”. The ED50 in series [2] (collagen-coated Gortex) was 0.135 mg/kg/min; in [2] (collagen-coated silastic tubing), 0.004 mg/kg/min; in series [2] (collagen-coated surfaces, applicants' determinations), below 5 nmol/kg/min. In addition, the “inhibition of platelet deposition” value in [2] (collagen-coated Gortex, 0.2 mg/kg/min) is reported as 62.9%; in series [2] (collagen-coated silastic tubing, 0.04 mg/kg/min), “completely inhibited platelet deposition”; in [2] (endarterectomized baboon aorta, 0.002 mg/kg/min, 60 minutes), 53.6%; in series [2] (endarterectomized baboon aorta, 0.01 mg/kg/min, 60 minutes) it was 75.5%. Also, the “inhibition of platelet-dependent thrombus formation compared to control” value in [2] (collagen-coated silastic tubing, 5 nmole/kg/min) is on record as 60-70%. Further, the “ED50 (dosage required to reduce platelet deposition by 50%)” value in series [2] (endarterectomized baboon aorta) is 0.002 mg/kg/min. For the same compound, the “adherent PMNs versus saline” value in [3] is listed as “significantly fewer adherent PMNs”. Also, the “increase in bleeding time over control values” in series [4] (0.1 mg/kg/min) was “two-fold”. The bleeding times is 3 times control values in series [4] (0.2 mg/kg/min) and “no significant increase in bleeding times” in [4] (0.002 to 0.04 mg/kg/min). The “Bleeding Time” value in series [4] (dose not given) is reported as 5.5 min. The half-life in series [5] (1 mg/kg i.v. bolus) worked out at 14 min. Also, in series [5] (1 mg/kg i.v. bolus, 2 minutes after injection), the “peak APTT” value was 570 % of control. Besides, in series [5] (1 mg/kg subcutaneous), the “absorption after subcutaneous administration” value is given as “quantitatively adsorbed”. In addition, the clearance half-time in series [5] (1 mg/kg subcutaneous) amounted to 340 min. For the same compound, in series [5] (1 mg/kg subcutaneous, 15 minutes), the APTT result is reported as “approximately 200 % of control”. In series [5] (after 60 minute i.v. infusion, 0.002-0.2 mg/kg/min), the “average half-time for clearance” value was determined as 9.2 ± 3.3 min. In addition, in series [6], the “maximal increase of APTT of plasma” value is reported as “too high to be measured”. The “fibrin(ogen) deposition” value in series [7] (0.01 mg/kg/min) and in series [7] (0.04 mg/kg/min) was “completely inhibited fibrin(ogen) deposition” in each case. Also, in series [8], the “APTT (% control)” value came out at 300.6 % control. For the same compound, the “increase in the APTT” value in [9] (0.002 mg/kg/min infusion) was found to be 200 % increase. Further, in series [9] (0.002 to 0.2 mg/kg/min i.v.), the “APTT response to dose” value was “dose-dependent increase in the APTT”. In series [10], the hematocrit drop entry is “completely attenuated hematocrit drop”. For the same compound, the “intravascular thrombosis at autopsy” value in [10] is on record as “only the control group displayed intravascular thrombosis”. For the same compound, the “morbidity after lethal infusion of E. coli” value in series [10] is “still resulted in morbidity”. Moreover, the “peak drop in blood pressure” value in series [10] is 60 % of baseline. Besides, in [11], the “anti-metastatic activity (reduction in lung tumor colonies)” value is “demonstrates anti-metastatic activity”. Besides, the “inhibition of platelet accumulation” value came out at 29.0% in series [12] (high shear) and 42.6% in [12] (low shear). In series [13], the “synthesis of PAF by HUVECs” value is “inhibits the synthesis of PAF”.

As to “H-(D-Phe)-Pro-(β-homoarginine)-Val-(Gly)4 -Asn-Gly-Asp-Phe-Glu-Glu-Ile-Pro-Glu-Glu-Tyr-Leu-OH”, the not cleaved entry in [14] was “kcat <0.01 min^-1; resistant to thrombin cleavage”.

Take Heparin: in series [15], the “effect on FPA release catalyzed by clot-bound thrombin” value was “no effect”. For the same compound, in [4] (in vivo), the “Bleeding Time” value turned out to be 10 min. For the same compound, in series [8], the “APTT (% control)” value is 706.1 % control. In addition, the “inhibition of FPA release catalyzed by soluble thrombin” value in [16] is “approximately 70%”. Further, in series [17], the “platelet deposition level relative to saline-treated control” value is recorded as “about 80%”.

By Kd is commonly meant the concentration at which binding is half-saturated. As to hirudin, the Kd in series [18] (1:1 stoichiometric complex, read-out: Kd of hirudin binding to thrombin) was 0.02 nM; in [18] (site separate from the catalytic site (anion-binding exosite), read-out: Kd of hirudin for the low affinity site on thrombin), 10 nM. Further, the “maximal increase of APTT of plasma” value in series [6] was “too high to be measured”.
